In patent publication US10730902B2, “1,1 ′-sulfanediyl-di-beta-D-galactopyranosides as inhibitors of galectins” (GALECTO BIOTECH AB, priority 2015, dated 2020):
Values after ≈ are worked out from the molar mass of the structure shown. Values belong to the molecule of their own block, whether it stands above or below them.

Columns and labels:
[1] = tested on: galectins; conditions: all galectins; cited from earlier work
[2] = molecular target: galectin-1 (Homo sapiens (Human), UniProt P09382); assay: Fluorescence anisotropy assay, galectin-1 affinity; type: binding; conditions: read-out: Gal-1 Kd
galectin-1, sequence (P09382 whole entry): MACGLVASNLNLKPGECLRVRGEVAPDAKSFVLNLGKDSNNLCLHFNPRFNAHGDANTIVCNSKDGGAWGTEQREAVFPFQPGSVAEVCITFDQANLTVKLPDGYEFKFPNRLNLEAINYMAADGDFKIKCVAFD
Protocol: The affinity of Example 1-5 for galectins were determined by a fluorescence anisotropy assay where the compound was used as an inhibitor of the interaction between galectin and a fluorescein tagged saccharide probe as described Sörme, P., Kahl-Knutsson, B., Huflejt, M., Nilsson, U. J., and Leffler H. (2004) Fluorescence polarization as an analytical tool to evaluate galectin-ligand interactions. Anal. Biochem. 334: 36-47, (Sörme et al., 2004) and Monovalent interactions of Galectin-1 By Salomonsson, Emma; Larumbe, Amaia; Tejler, Johan; Tullberg, Erik; Rydberg, Hanna; Sundin, Anders; Khabut, Areej; Frejd, Torbjorn; Lobsanov, Yuri D.; Rini, James M.; et al, From Biochemistry (2010), 49(44), 9518-9532, (Salomonsson et al., 2010). […] 100 nM albumin was included as a carrier to prevent protein loss at such low concentration of galectin.

[3] = Solubility; type: physicochemical
[4] = molecular target: galectin-3 (Homo sapiens (Human), UniProt P17931); assay: Fluorescence anisotropy assay, galectin-3 affinity; type: binding; conditions: read-out: Gal-3 Kd
galectin-3, sequence (P17931 whole entry): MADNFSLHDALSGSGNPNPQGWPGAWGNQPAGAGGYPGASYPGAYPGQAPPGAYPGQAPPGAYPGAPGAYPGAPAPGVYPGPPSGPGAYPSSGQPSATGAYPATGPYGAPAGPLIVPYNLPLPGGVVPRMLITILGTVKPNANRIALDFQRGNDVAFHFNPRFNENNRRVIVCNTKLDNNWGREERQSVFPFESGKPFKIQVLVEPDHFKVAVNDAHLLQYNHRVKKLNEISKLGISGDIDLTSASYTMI
Protocol: Anal. Biochem. 334: 36-47, (Sörme et al., 2004) and Monovalent interactions of Galectin-1 By Salomonsson, Emma; Larumbe, Amaia; Tejler, Johan; Tullberg, Erik; Rydberg, Hanna; Sundin, Anders; Khabut, Areej; Frejd, Torbjorn; Lobsanov, Yuri D.; Rini, James M.; et al, From Biochemistry (2010), 49(44), 9518-9532, (Salomonsson et al., 2010). […] 100 nM albumin was included as a carrier to prevent protein loss at such low concentration of galectin.

[5] = tested on: rabbit model of proliferative Vitreoretinopathy (PVR); assay: Study of ocular fibrosis in rabbits (retinal detachment, PVR model); type: in vivo, New Zealand white rabbits; conditions: for reduction of size and number of subretinal glial scars and number of dividing cells: in HEC formulation, rabbit retinal detachment; for number of subretinal scars per mm of retina / scar length per mm of retina: seven days after retinal detachment; for number of subretinal scars per mm of retina / scar length per mm of retina / Ki67 labeled Muller cells per mm of retina: 50 μL IVT in HEC gel, GB1A 0.05 mg/mL, GB1B 1.5 mg/mL; for number of subretinal scars per mm of retina: HEC control 1.26; for scar length per mm of retina: HEC control 175; for Ki67 labeled Muller cells per mm of retina: three days after retinal detachment, HEC control 9.57
Protocol: 30 New Zealand white rabbits were housed in metal cages that conformed to standards set forth in the Animal Welfare Act and the Guide for the Care and Use of Laboratory Animals. Space recommendations for animals were in accordance with PHS policy and the AWA.
The vehicle gel formulation was 1.65% (w/v) HEC in NaCl. The vehicle formulation was prepared by adding the appropriate amount of HEC to 75% of the required volume of 0.9% NaCl. The resulting formulation was stirred for 20 to 25 minutes after which it was QS'ed (adjusted) to the final volume with 0.9% NaCl and stirred for an additional 2 to 3 hours at room temperature. The gel formulation was then filtered with a 0.2 μm cellulose filter.
The test item formulations were prepared by adding the appropriate amount of GB1A or GB1B to 75% of the required volume of 0.9% NaCl. The resulting formulation was agitated for 20 to 25 minutes after which the pH of the solution was measured and adjusted, as necessary, to 6-6.5 with 0.01M NaOH. The required amount of HEC was added to the test item solution and the formulation was agitated for 20 to 25 minutes. The formulation was then QS'ed to the final volume with NaCl and agitated for an additional 2 to 3 hours at room temperature. The final gel formulation was filtered with a 0.2 μm cellulose filter.
Retinal detachments were created by infusing a dilute solution (0.25%) of Healon into the subretinal space of the right eyes in 30 New Zealand White rabbits. Fifty (50) μL of GB1A (0.05 mg/mL), GB1B (1.5 mg/mL), or vehicle (HEC) formulations were injected intravitreally immediately after the detachment surgery in the right eyes of all animals (n=5 for each vehicle/test item at each time-point). The left eyes served as naïve controls. Euthanasia was performed by administering “Euthasol” IV via an ear vein, on animals of Groups 1 to 3, 3 days after retinal detachment (n=15) to examine the effects on proliferation, and on animals of Groups 4 to 6, 7 days after retinal detachment (n=15) to examine the effects on scaring.
Following euthanasia, the retinas were fixed in 4% paraformaldehyde for 24 hours. Three retinal regions approximately 3 mm square were sampled from within each detached retina as well as from control retinas. The retinas were embedded in agarose and vibratomed at 100 microns in thickness. Sections were immunolabeled with antibodies to intermediate filament proteins (vimentin) and proliferating cells (Ki67). A marker for immune cells (Isolectin B4) and a nuclear stain (DAPI) was also used. All 4 probes were added to the same sections (i.e. quadruple labeling).
The sections were imaged using an Olympus FV1000 confocal microscope. Digital images were acquired and used to determine 1) the number and size of subretinal glial scars 2) the number of dividing cells and their cell type e.g. of immune or glial origin 3) whether microglia are “activated” and 4) if macrophages are present. Animals were weighed pre-dose and at euthanasia. All animals gained a small amount of weight as was expected.
Following euthanasia, the eyes were enucleated, the cornea and lens removed and the eyecups fixed in 4% paraformaldehyde in PBS for 24 hours. Three retinal regions approximately 3 mm^2 were dissected from within each detached retina and embedded in agarose for sectioning as described above. Following immunolabeling, the sections were mounted on glass slides and cover-slipped. Digital images were captured from along the length of each section collected from each of the 3 retinal regions using a FV1000 confocal microscope. Quantitation of scar length and number, as well as the number of dividing cells, was performed using the digital images viewed in “BioImage” (software available as a free download from UCSB's dept. of engineering). In addition, the presence of immune cells as described in the Experimental Design was noted and tabulated for each animal.

Structure (SMILES): O=C[C@H](O)[C@@H](O)[C@@H](O)[C@H](O)CO [D-galactose]
affinity relative to lactose [1]: 50-100 times lower

Structure (SMILES): OCC1O[C@@H](SC2O[C@H](CO)C(O)C(n3cc(N4CCOCC4)nn3)[C@H]2O)C(O)C(n2cc(-c3cc(F)c(F)c(F)c3)nn2)[C@H]1O (stereo partly drawn) [Example 1, 3,3′-Dideoxy-3-[4-(morpholin-4-yl)-1H-1,2,3-triazol-1-yl]-3′-[4-(3,4,5-trifluorophenyl)-1H-1,2,3-triazol-1-yl]-1,1′-sulfanediyl-di-β-D-galactopyranoside]
Kd [2]: 0.11 µM

Structure (SMILES): CN1CCN(c2cn(C3C(O)[C@@H](CO)OC(S[C@@H]4OC(CO)[C@H](O)[C@H](n5cc(-c6cc(F)c(F)c(F)c6)nn5)C4O)[C@@H]3O)nn2)CC1 (stereo partly drawn) [Example 2, 3,3′-Dideoxy-3-[4-(4-methylpiperazin-1-yl)-1H-1,2,3-triazol-1-yl]-3′-[4-(3,4,5-trifluorophenyl)-1H-1,2,3-triazol-1-yl]-1,1′-sulfanediyl-di-β-D-galactopyranoside]
solubility [3]: > 10000 µg/mL

Structure (SMILES): OCC1O[C@@H](SC2O[C@H](CO)C(O)C(n3cc(C4CCOCC4)nn3)[C@H]2O)C(O)C(n2cc(-c3cc(F)c(F)c(F)c3)nn2)[C@H]1O (stereo partly drawn) [Example 4, 3,3′-Dideoxy-3-[4-(tetrahydropyran-4-yl)-1H-1,2,3-triazol-1-yl]-3′-[4-(3,4,5-trifluorophenyl)-1H-1,2,3-triazol-1-yl]-1,1′-sulfanediyl-di-β-D-galactopyranoside]
Kd [2]: 0.058 µM

Structure (SMILES): OC[C@H]1O[C@@H](S[C@@H]2O[C@H](CO)[C@H](O)[C@H](n3cc(-c4cccc(F)c4)nn3)[C@H]2O)[C@H](O)[C@@H](n2cc(-c3cccc(F)c3)nn2)[C@H]1O [GB1A, 3,3′-Dideoxy-3,3′-bis-[4-(3-fluoro-phenyl)-1H-1,2,3-triazol-1-yl]-1,1′-sulfanediyl-di-β-D-galactopyranoside]
reduction of size and number of subretinal glial scars and number of dividing cells [5]: highly effective
number of subretinal scars per mm of retina [5]: 0.45 scars per mm of retina
scar length per mm of retina [5]: 25.83 microns per mm of retina
Ki67 labeled Muller cells per mm of retina [5]: 3.01 cells per mm of retina

Structure (SMILES): OC[C@H]1O[C@@H](S[C@@H]2O[C@H](CO)[C@H](O)[C@H](n3cc(-c4ccc(F)cn4)nn3)[C@H]2O)[C@H](O)[C@@H](n2cc(-c3ccc(F)cn3)nn2)[C@H]1O [GB1B, 3,3′-Dideoxy-3,3′-bis-[4-(5-fluoro-2-pyridinyl)-1H-1,2,3-triazol-1-yl]-1,1′-sulfanediyl-di-β-D-galactopyranoside]
reduction of size and number of subretinal glial scars and number of dividing cells [5]: highly effective
number of subretinal scars per mm of retina [5]: 0.43 scars per mm of retina
scar length per mm of retina [5]: 28.8 microns per mm of retina
Ki67 labeled Muller cells per mm of retina [5]: 2.73 cells per mm of retina

Structure (SMILES): OC[C@H]1O[C@@H](O[C@H]2[C@H](O)[C@@H](O)C(O)O[C@@H]2CO)[C@H](O)[C@@H](O)[C@H]1O (stereo partly drawn) [lactose]
Kd [1]: 500 to 1000 µM

Other lines, results leading:

solubility [3]: > 10000 µg/mL
Structure (SMILES): OCC1O[C@@H](SC2O[C@H](CO)C(O)C(n3cc(N4CCOCC4)nn3)[C@H]2O)C(O)[C@@H](n2cc(-c3cc(F)c(F)c(F)c3)nn2)[C@H]1O (stereo partly drawn) [Example 1, 3,3′-Dideoxy-3-[4-(morpholin-4-yl)-1H-1,2,3-triazol-1-yl]-3′-[4-(3,4,5-trifluorophenyl)-1H-1,2,3-triazol-1-yl]-1,1′-sulfanediyl-di-β-D-galactopyranoside]

Kd [2]: 0.035 µM
Structure (SMILES): CN1CCN(c2cn(C3C(O)[C@@H](CO)OC(S[C@@H]4OC(CO)[C@H](O)C(n5cc(-c6cc(F)c(F)c(F)c6)nn5)C4O)[C@@H]3O)nn2)CC1 (stereo partly drawn) [Example 2, 3,3′-Dideoxy-3-[4-(4-methylpiperazin-1-yl)-1H-1,2,3-triazol-1-yl]-3′-[4-(3,4,5-trifluorophenyl)-1H-1,2,3-triazol-1-yl]-1,1′-sulfanediyl-di-β-D-galactopyranoside]

Kd [4]: 0.005 µM
Kd [2]: 0.029 µM
solubility [3]: > 10000 µg/mL
Structure (SMILES): OCC1O[C@@H](SC2O[C@H](CO)C(O)C(n3cc(C4CCNCC4)nn3)[C@H]2O)C(O)[C@@H](n2cc(-c3cc(F)c(F)c(F)c3)nn2)[C@H]1O (stereo partly drawn) [Example 3, 3,3′-Dideoxy-3-[4-(piperidin-4-yl)-1H-1,2,3-triazol-1-yl]-3′-[4-(3,4,5-trifluorophenyl)-1H-1,2,3-triazol-1-yl]-1,1′-sulfanediyl-di-β-D-galactopyranoside]

solubility [3]: 8100 µg/mL (≈ 12 mM)
Structure (SMILES): OCC1O[C@@H](SC2O[C@H](CO)C(O)C(n3cc(C4CCOCC4)nn3)[C@H]2O)C(O)[C@@H](n2cc(-c3cc(F)c(F)c(F)c3)nn2)[C@H]1O (stereo partly drawn) [Example 4, 3,3′-Dideoxy-3-[4-(tetrahydropyran-4-yl)-1H-1,2,3-triazol-1-yl]-3′-[4-(3,4,5-trifluorophenyl)-1H-1,2,3-triazol-1-yl]-1,1′-sulfanediyl-di-β-D-galactopyranoside]

Kd [2]: 0.07 µM
Structure (SMILES): CC(C)c1cn(C2C(O)[C@@H](CO)OC(S[C@@H]3OC(CO)[C@H](O)C(n4cc(-c5cc(F)c(F)c(F)c5)nn4)C3O)[C@@H]2O)nn1 (stereo partly drawn) [Example 5, 3,3′-Dideoxy-3-[4-(propan-2-yl)-1H-1,2,3-triazol-1-yl]-3′-[4-(3,4,5-trifluorophenyl)-1H-1,2,3-triazol-1-yl]-1,1′-sulfanediyl-di-β-D-galactopyranoside]

solubility [3]: > 10000 µg/mL
Structure (SMILES): CC(C)c1cn(C2C(O)[C@@H](CO)OC(S[C@@H]3OC(CO)[C@H](O)[C@H](n4cc(-c5cc(F)c(F)c(F)c5)nn4)C3O)[C@@H]2O)nn1 (stereo partly drawn) [Example 5, 3,3′-Dideoxy-3-[4-(propan-2-yl)-1H-1,2,3-triazol-1-yl]-3′-[4-(3,4,5-trifluorophenyl)-1H-1,2,3-triazol-1-yl]-1,1′-sulfanediyl-di-β-D-galactopyranoside]
